We go through four compounds from publication PMC3356457 (Nature, 2012).

Experiment [1] concerns the target hKOR E297A (Homo sapiens, UniProt P41145, E297A). The class given is binding.
For experiment [2] the following is noted: cited from earlier work.
The test system of experiment [3] is KOR. The conditions noted are these: cited from earlier work.
The target in experiment [4] is KOR (Homo sapiens, UniProt P41145). The class given is cell-based.
For experiment [5] the following is noted: cited from earlier work. This is another data set of the same source.
Experiment [6] addresses KOR. The conditions noted are these: cited from earlier work. This is another data set of the same source.
Experiment [7] concerns KOR. The conditions noted are these: agonist; cited from earlier work.
The test system of experiment [8] is KOR. The conditions noted are these: cited from earlier work. This is another data set of the same source.

Each structure is given as a SMILES string. Like-named read-outs stand apart in the source and are kept apart here. A value given as a limit tells only on which side of the number the result lay.

Sequence of KOR (Homo sapiens, UniProt P41145) (P41145 whole entry): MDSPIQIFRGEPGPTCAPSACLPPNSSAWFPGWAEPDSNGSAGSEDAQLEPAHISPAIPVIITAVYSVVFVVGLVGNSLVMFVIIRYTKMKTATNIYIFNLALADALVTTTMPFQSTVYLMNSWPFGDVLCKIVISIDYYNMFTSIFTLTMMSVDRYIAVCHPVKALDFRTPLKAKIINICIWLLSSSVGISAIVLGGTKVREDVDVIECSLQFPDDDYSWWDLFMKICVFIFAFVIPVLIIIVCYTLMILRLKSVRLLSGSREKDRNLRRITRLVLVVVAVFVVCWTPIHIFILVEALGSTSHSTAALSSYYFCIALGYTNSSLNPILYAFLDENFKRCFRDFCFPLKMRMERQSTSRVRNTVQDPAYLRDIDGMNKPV
Sequence of hKOR E297A (P41145 whole entry E297A): as the sequence (P41145 whole entry) above, with E297A counted along it

Turning to `NC(N)=Nc1ccc2[nH]c3c(c2c1)C[C@@]1(O)[C@H]2Cc4ccc(O)c5c4[C@@]1(CCN2CC1CC1)[C@H]3O5` [GNTI], in experiment [1], the “Effect of Glu297Ala mutation on binding” value is listed as “significant drop”.
With `CC(C)[C@@H](CN1CC[C@@](C)(c2cccc(O)c2)[C@@H](C)C1)NC(=O)[C@H]1Cc2ccc(O)cc2CN1` [JDTic, (3R)-7-hydroxy-N-[(1S)-1-(((3R,4R)-4-(3-hydroxyphenyl)-3,4-dimethyl-1-piperidinyl)methyl)-2-methylpropyl]-1,2,3,4-tetrahydro-3-isoquinoline-carboxamide], the “Effect on μ-agonist induced analgesia” value in experiment [2] is “not antagonizing”. Moreover, the “Effect on κ-agonist U50,488-induced antinociception” value in experiment [3] is reported as “blocks”. In experiment [4], the “Agonist activity, Gi-mediated (canonical) signaling” value is given as “devoid of agonist activity” and the “Blockade of the effects of agonist U69593, Gi-mediated signaling” value is “completely blocked”. Besides, in experiment [1], the “Effect of Glu297Ala mutation on binding” value is listed as “did not affect”. Moreover, the “Activity in rodent models of depression, anxiety, stress-induced cocaine relapse, and nicotine withdrawal” value in experiment [5] was “robust activity”.
Regarding `COC(=O)[C@@H]1C[C@H](OC(=O)CSC#N)C(=O)[C@H]2[C@@]1(C)CC[C@H]1C(=O)O[C@H](c3ccoc3)C[C@]21C` [RB-64, 22-thiocyanatosalvinorin A], the Ki in experiment [6] was 590 pM. Moreover, the EC50 in experiment [7] is 77 pM.
Consider `COC(=O)[C@@H]1C[C@H](OC(C)=O)C(=O)[C@H]2[C@@]1(C)CC[C@H]1C(=O)O[C@H](c3ccoc3)C[C@]21C` [Salvinorin A], for which the KOR selectivity in experiment [8] was […]. Moreover, the EC50 in experiment [8] (read-out: EC50, KOR agonist) was […].

The term Ki denotes a measure of affinity in units of concentration, obtained from inhibition or displacement. A word on the EC50: it is the concentration at which the effect is half-maximal.
